One data set addresses human MTP (Homo sapiens, UniProt P55157). As to the kind of experiment: human MTP activity assay (SPA, 3H-triolein transfer between liposomes). Conditions: 3H-triolein transfer from donor to acceptor liposomes, 25 min incubation at 37° C., streptavidin-SPA beads. It counts as biochemical. The procedure:
The ability of the compounds of this invention to inhibit human MTP activity is measured by an in vitro assay where MTP tranfers 3H-triolein between phosphatidylcholine liposomes. The specificity of the compounds of the invention is established by comparing the effects on apoB-100 and apoprotein A-1 production. A specificity of at least 100 is preferred.
The human MTP activity assay was established using SPA technology. Donor liposomes were prepared with 3H-triolein and phosphatidylcholine, while acceptor liposomes contained biotinylated phosphatidylethanolamine and phosphatidylcholine. The MTP-mediated 3H-triolein transfer onto acceptor liposomes was allowed by a 25 min incubation at 37° C., and quantified by the addition of streptavidin-SPA beads.

Sequence of human MTP (P55157 19-894): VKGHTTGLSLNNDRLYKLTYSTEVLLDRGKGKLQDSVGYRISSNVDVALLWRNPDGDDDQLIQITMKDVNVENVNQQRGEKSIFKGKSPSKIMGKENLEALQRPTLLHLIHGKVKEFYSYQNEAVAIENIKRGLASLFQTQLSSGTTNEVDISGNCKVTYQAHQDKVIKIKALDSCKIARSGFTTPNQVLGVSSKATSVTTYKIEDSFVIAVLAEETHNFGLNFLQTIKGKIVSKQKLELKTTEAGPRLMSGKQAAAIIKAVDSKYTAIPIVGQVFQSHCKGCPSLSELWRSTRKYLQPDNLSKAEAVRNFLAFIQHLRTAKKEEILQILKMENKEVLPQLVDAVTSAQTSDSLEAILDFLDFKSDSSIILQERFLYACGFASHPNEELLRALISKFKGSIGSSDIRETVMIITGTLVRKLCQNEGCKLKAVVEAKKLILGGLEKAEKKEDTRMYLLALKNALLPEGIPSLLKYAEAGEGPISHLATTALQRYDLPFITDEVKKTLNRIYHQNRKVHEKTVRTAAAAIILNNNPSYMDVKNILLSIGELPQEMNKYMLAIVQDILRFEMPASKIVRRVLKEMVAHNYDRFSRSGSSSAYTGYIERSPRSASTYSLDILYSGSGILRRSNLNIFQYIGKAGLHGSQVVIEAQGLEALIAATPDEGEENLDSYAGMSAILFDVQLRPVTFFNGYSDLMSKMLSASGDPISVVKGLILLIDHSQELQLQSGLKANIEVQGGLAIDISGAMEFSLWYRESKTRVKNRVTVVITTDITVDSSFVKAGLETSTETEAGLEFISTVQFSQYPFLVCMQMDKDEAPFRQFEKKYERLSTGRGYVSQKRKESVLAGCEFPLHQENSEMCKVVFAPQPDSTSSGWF
Sequence of human MTP (P07237 18-508 partner): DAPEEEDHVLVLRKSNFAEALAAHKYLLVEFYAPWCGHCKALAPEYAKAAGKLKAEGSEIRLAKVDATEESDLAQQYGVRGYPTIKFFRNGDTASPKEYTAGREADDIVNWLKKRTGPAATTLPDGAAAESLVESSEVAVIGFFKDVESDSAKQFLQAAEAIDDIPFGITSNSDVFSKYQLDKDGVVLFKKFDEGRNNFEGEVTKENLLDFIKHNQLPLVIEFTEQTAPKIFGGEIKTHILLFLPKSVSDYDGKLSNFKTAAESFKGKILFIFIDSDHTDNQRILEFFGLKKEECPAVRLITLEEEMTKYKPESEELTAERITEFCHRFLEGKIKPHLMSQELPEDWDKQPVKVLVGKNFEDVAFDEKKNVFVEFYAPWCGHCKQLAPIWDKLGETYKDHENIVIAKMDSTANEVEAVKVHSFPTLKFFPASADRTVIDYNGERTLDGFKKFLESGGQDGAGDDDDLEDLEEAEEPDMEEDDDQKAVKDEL

With `COC(=O)C(c1ccccc1)N1CCN(c2ccc(NC(=O)c3ccccc3-c3ccc(C(F)(F)F)cc3)cc2)CC1` (stereo not drawn) [Example 11, 4′-Trifluoromethyl-biphenyl-2-carboxylic acid [4-(4-(α-(methoxcyarbonyl)-benzyl)-piperazin-1-yl)-phenyl]-amide], the melting point – broadly, the temperature of the solid-liquid transition – was 130 to 135 °C. The IC50 (commonly the concentration that inhibits the measured activity by half) at human MTP was 3.2 nM.

In turn, `N#Cc1cccc(C(c2ccc[nH]2)N2CCN(c3ccc(NC(=O)c4ccccc4-c4ccc(C(F)(F)F)cc4)cc3)CC2)c1` (stereo not drawn) [Example 17, 4′-Trifluoromethyl-biphenyl-2-carboxylic acid [4-(4-(3-cyano-α-(pyrrol-2-yl)-benzyl)-piperazin-1-yl)-phenyl]-amide] displayed a melting point of 202 to 203 °C. With `Cc1ccc(C(=O)Nc2ccc(N3CCN(C(C)c4cccc(C#N)c4)CC3)cc2)c(-c2ccc(C(F)(F)F)cc2)c1` (stereo not drawn) [Example 2, 5-Methyl-4′-trifluoromethyl-biphenyl-2-carboxylic acid [4-(4-(3-cyano-α-methyl-benzyl)-piperazin-1-yl)-phenyl]-amide], the melting point is 192 to 194 °C. The IC50 against human MTP was determined as 1 nM. On the same counts, the results for `O=C(Nc1ccc(N2CCN(C(C(=O)c3ccccc3)c3ccccc3)CC2)cc1)c1ccccc1-c1ccc(C(F)(F)F)cc1` (stereo not drawn) [Example 8, 4′-Trifluoromethyl-biphenyl-2-carboxylic acid [4-(4-(α-benzoyl-benzyl)-piperazin-1-yl)-phenyl]-amide] are 165 °C and 40 nM. Turning to `O=C(Nc1ccc(N2CCN(C(Cn3cccn3)c3ccccc3)CC2)cc1)c1ccccc1-c1ccc(C(F)(F)F)cc1` (stereo not drawn) [Example 10, 4′-Trifluoromethyl-biphenyl-2-carboxylic acid [4-(4-(α-((pyrazol-1-yl)-methyl)-benzyl)-piperazin-1-yl)-phenyl]-amide], on human MTP, the IC50 was 157 nM. Compound `CC(c1cccc(C(F)(F)F)c1)N1CCN(c2ccc(NC(=O)c3ccccc3-c3ccc(C(F)(F)F)cc3)cc2)CC1` (stereo not drawn) [Example 4, 4′-Trifluoromethyl-biphenyl-2-carboxylic acid [4-(4-(3-trifluoromethyl-α-methyl-benzyl)-piperazin-1-yl)-phenyl]-amide] came in with a melting point of 158 to 160 °C. Same read-out and setting: next, `CC(=O)C(c1ccc(F)cc1)N1CCN(c2ccc(NC(=O)c3ccccc3-c3ccc(C(F)(F)F)cc3)cc2)CC1` (stereo not drawn) [Example 7, 4′-trifluoromethyl-biphenyl-2-carboxylic acid [4-(4-(4-fluoro-α-acetyl-benzyl)-piperazin-1-yl)-phenyl]-amide]: 200 to 202 °C; `N#CC(c1ccccc1)N1CCN(c2ccc(NC(=O)c3ccccc3-c3ccc(C(F)(F)F)cc3)cc2)CC1` (stereo not drawn) [Example 5, 4′-Trifluoromethyl-biphenyl-2-carboxylic acid [4-(4-(α-cyano-benzyl)-piperazin-1-yl)-phenyl]-amide]: 204 °C. Take `O=C(Nc1ccc(N2CCN(C(C(=O)NCc3ccccn3)c3ccccc3)CC2)cc1)c1ccccc1-c1ccc(C(F)(F)F)cc1` (stereo not drawn) [Example 14, 4′-Trifluoromethyl-biphenyl-2-carboxylic acid [4-(4-(α-((pyridin-2-yl-methyl)-aminocarbonyl)-benzyl)-piperazin-1-yl)-phenyl]-amide]: the melting point was in the range of 139 to 141 °C. In addition, inhibition against human MTP was half-maximal at 3 nM (IC50). On human MTP, `O=C(Nc1ccc(N2CCN(C(c3ccccc3)c3noc(-c4ccccc4)n3)CC2)cc1)c1ccccc1-c1ccc(C(F)(F)F)cc1` (stereo not drawn) [Example 9, 4′-Trifluoromethyl-biphenyl-2-carboxylic acid [4-(4-(α(5-phenyl-[1,2,4]oxadiazol-3-yl)-benzyl)-piperazin-1-yl)-phenyl]-amide] registered an IC50 of 5.6 nM. Take `CC(c1ccccc1)N1CCN(c2ccc(NC(=O)c3ccccc3-c3ccc(C(F)(F)F)cc3)cc2)CC1` (stereo not drawn) [Example 1, 4′-Trifluoromethyl-biphenyl-2-carboxylic acid [4-(4-(α-methyl-benzyl)-piperazin-1-yl)-phenyl]-amide]: the melting point lay in the range of 194 to 196 °C.

The record behind these values is US20040024215A1, “Benzamide derivatives and their use as apob-100 and mtp inhibitors” (priority 2000, published 2004).
